The term IC50 denotes the concentration that gives 50% inhibition.

This is an account of results in patent US7425557B2, “Inhibitors of glycogen synthase kinase 3” (Novartis Vaccines and Diagnostics, Inc., priority 1998, dated 2008).

Sequence of human GSK3β (P49841 whole entry): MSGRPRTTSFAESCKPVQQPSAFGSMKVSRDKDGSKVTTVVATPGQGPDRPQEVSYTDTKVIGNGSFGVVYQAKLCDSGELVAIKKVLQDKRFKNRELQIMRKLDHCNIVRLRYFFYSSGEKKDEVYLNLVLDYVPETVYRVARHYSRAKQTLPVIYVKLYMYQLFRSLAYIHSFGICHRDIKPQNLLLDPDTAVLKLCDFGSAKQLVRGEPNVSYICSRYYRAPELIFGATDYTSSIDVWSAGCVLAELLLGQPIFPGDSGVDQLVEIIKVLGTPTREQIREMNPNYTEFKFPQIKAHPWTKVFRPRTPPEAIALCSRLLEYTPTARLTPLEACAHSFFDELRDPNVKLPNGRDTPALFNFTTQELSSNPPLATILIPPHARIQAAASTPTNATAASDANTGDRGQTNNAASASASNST

The target of the experiment is human GSK3β (Homo sapiens, UniProt P49841). The experiment can be described thus: Screening for GSK3 inhibitory activity using a cell-free assay. Conditions: read-out: IC50 with respect to GSK3. It counts as biochemical. A digest of the protocol:
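Radiometric cell-free assay with recombinant human GSK3β phosphorylating a biotinylated peptide substrate for 3 h. Reactions were stopped with 50 μM ATP/20 mM EDTA and captured on streptavidin plates. Incorporated radiolabel was counted by scintillation and plotted against compound concentration.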
Consider `NC(=O)c1ccc(-c2ccnc(NCc3cccc(-c4cccc(C(F)(F)F)c4)c3)n2)cc1` [4-{2-[({3-[3-(trifluoromethyl)phenyl]phenyl}methyl)amino]pyrimidin-4-yl}benzamide], for which the IC50 is no more than 10 µM.

Regarding `O=C(O)c1c(-c2ccccc2)nc(NCCNc2ccc([N+](=O)[O-])cn2)nc1-c1ccccc1F` [6-(2-fluorophenyl)-2-({2-[(5-nitro(2-pyridyl))amino]ethyl}amino)-4-phenyl-pyrimidine-5-carboxylic acid], the half-maximal inhibitory concentration (IC50) was no more than 10 µM.

Take `CCc1ccc(-c2nc(N(C)CCNc3ccc(C#N)cn3)ccc2N2CCN(C)CC2=O)cc1` [6-({2-[[6-(4-ethylphenyl)-5-(4-methyl-2-oxo-1-piperazinyl)-2-pyridinyl](methyl)amino]ethyl}amino)nicotinonitrile]: the IC50 was no more than 10 µM.

In the case of `CN1CCN(c2cnc(NCCNc3ccc(C#N)cn3)nc2-c2ccc(Cl)cc2Cl)C(=O)C1` [6-[(2-{[4-(2,4-dichlorophenyl)-5-(4-methyl-2-oxo-1-piperazinyl)-2-pyrimidinyl]amino}ethyl)amino]-nicotinonitrile], the IC50 is no more than 10 µM.

As to `N#Cc1ccc(NCCNc2ncc(-c3ncc[nH]3)c(-c3ccc(Cl)cc3Cl)n2)nc1` [6-[(2-{[4-(2,4-dichlorophenyl)-5-imidazol-2-ylpyrimidin-2-yl]amino}ethyl)amino]pyridine-3-carbonitrile], the IC50 is no more than 1 µM.

`N#Cc1ccc(NCCNCc2ncc(-c3ncc[nH]3)c(-c3ccc(Cl)cc3Cl)n2)nc1` [6-[(2-{[4-(2,4-dichlorophenyl)-5-imidazol-2-ylpyrimidin-2-yl]methylamino}ethyl)amino]pyridine-3-carbonitrile]: the IC50 was no more than 1 µM.

As to `N#Cc1ccc(NCCNc2ncc(-c3ncc[nH]3)c(-c3ccc(F)cc3Cl)n2)nc1` [6-[(2-{[4-(2-chloro-4-fluorophenyl)-5-imidazol-2-ylpyrimidin-2-yl]amino}ethyl)amino]pyridine-3-carbonitrile], the IC50 is no more than 1 µM.

On to `Cc1c[nH]c(-c2cnc(NCCNc3ccc(C#N)cn3)nc2-c2ccc(Br)cc2Cl)n1` [6-[(2-{[4-(4-bromo-2-chlorophenyl)-5-(4-methylimidazol-2-yl)pyrimidin-2-yl]amino}ethyl)amino]pyridine-3-carbonitrile], for which the IC50 was no more than 1 µM.

Take `N#Cc1ccc(NCCNc2ncc(-c3ncc[nH]3)c(-c3ccc(Br)cc3Cl)n2)nc1` [6-[(2-{[4-(4-bromo-2-chlorophenyl)-5-imidazol-2-ylpyrimidin-2-yl]amino}ethyl)amino]pyridine-3-carbonitrile]: the concentration for half-maximal inhibition (IC50) is no more than 1 µM.

For `CCOC(=O)c1cnc(NCCNc2ccc(C(=O)O)cn2)nc1-c1ccc(C#N)cc1` [6-[(2-{[4-(4-cyanophenyl)-5-(ethoxycarbonyl)pyrimidin-2-yl]amino}ethyl)amino]pyridine-3-carboxylic acid], the IC50 was no more than 10 µM.

In the case of `CN1CCN(c2ccc(NCCNc3ccc(C#N)cn3)nc2-c2ccc(Cl)cc2Cl)C(=O)C1` [6-[(2-{[6-(2,4-dichlorophenyl)-5-(4-methyl-2-oxo-1-piperazinyl)-2-pyridinyl]amino}ethyl)amino]nicotinonitrile], the IC50 was no more than 10 µM.

Consider `Cc1cn(-c2ccc(NCCNc3ccc(C#N)cn3)nc2-c2ccc(Cl)cc2Cl)cn1` [6-[(2-{[6-(2,4-dichlorophenyl)-5-(4-methylimidazolyl)-2-pyridyl]-amino}ethyl)amino]pyridine-3-carbonitrile], for which the IC50 was no more than 1 µM.

`N#Cc1ccc(NCCNc2ccc(-n3ccnc3)c(-c3ccc(Cl)cc3Cl)n2)nc1` [6-[(2-{[6-(2,4-dichlorophenyl)-5-imidazolyl-2-pyridyl]amino}ethyl)amino]pyridine-3-carbonitrile]: the IC50 was no more than 1 µM.

As for `CCc1ccc(-c2nc(NCCNc3ccc(C#N)cn3)ccc2N2CCN(C)CC2=O)cc1` [6-[(2-{[6-(4-ethylphenyl)-5-(4-methyl-2-oxo-1-piperazinyl)-2-pyridinyl]amino}ethyl)amino]nicotinonitrile], the IC50 was no more than 10 µM.

Take `Cc1nc(NCCNc2ccc([N+](=O)[O-])cn2)nc(-c2ccccc2)c1C(=O)O` [6-methyl-2-({2-[(5-nitro(2-pyridyl))amino]ethyl}amino)-4-phenylpyrimidine-5-carboxylic acid]: the IC50 was no more than 10 µM.

For `N#Cc1ccc(NCCNc2ccc([N+](=O)[O-])c(NCc3ccccc3)n2)nc1` [6-{[2-({5-nitro-6-[benzylamino]-2-pyridyl}amino)ethyl]amino}pyridine-3-carbonitrile], the concentration for half-maximal inhibition (IC50) was no more than 10 µM.

Regarding `CN(C)CCc1noc(-c2cnc(NCCNc3ccc([N+](=O)[O-])c(N)n3)nc2-c2ccc(Cl)cc2Cl)n1` [(2-{5-[2-({2-[(6-amino-5-nitro(2-pyridyl))amino]-ethyl}amino)-4-(2,4-dichlorophenyl)pyrimidin-5-yl](1,2,4-oxadiazol-3-yl)}ethyl)-dimethylamine], the IC50 was no more than 1 µM.

Take `c1ccc(-c2ccnc(NCCc3ccccn3)n2)cc1` [(4-phenylpyrimidin-2-yl)(2-(2-pyridyl)ethyl)amine]: the IC50 is no more than 10 µM.

As for `c1ccc(-c2ccnc(NCCNc3ccccn3)n2)cc1` [(4-phenylpyrimidin-2-yl)[2-(2-pyridylamino)ethyl]amine], the IC50 is no more than 10 µM.

With `O=[N+]([O-])c1ccc(NCCNc2nccc(NCc3cccc(Br)c3)n2)nc1` [(4-{[(3-bromophenyl)methyl]amino}pyrimidin-2-yl){2-[(5-nitro(2-pyridyl))amino]ethyl}-amine], the IC50 is no more than 10 µM.

`O=[N+]([O-])c1cnc(NCCNc2ccccn2)nc1-c1ccccc1` [(5-nitro-4-phenylpyrimidin-2-yl)[2-(2-pyridylamino)ethyl]amine]: the concentration for half-maximal inhibition (IC50) was no more than 1 µM.

On to `O=[N+]([O-])c1ccc(NCCNc2ccc([N+](=O)[O-])c(NCc3ccc(Cl)cc3Cl)n2)nc1` [(6-{[(2,4-dichlorophenyl)methyl]amino}-5-nitro(2-pyridyl)){2-[(5-nitro(2-pyridyl))amino]ethyl}amine], for which the IC50 is no more than 10 µM.

Turning to `N#Cc1ccc(-c2nc(NCCNc3ccc([N+](=O)[O-])cn3)ncc2C(=O)NC(CO)C(N)=O)cc1` (stereo not drawn) [N-(1-carbamoyl-2-hydroxyethyl)[4-(4-cyanophenyl)-2-({2-[(5-nitro(2-pyridyl))-amino]ethyl}amino)pyrimidin-5-yl]carboxamide], the IC50 was no more than 1 µM.

Turning to `NC(=O)C(Cc1ccccc1)NC(=O)c1ccc(-c2ccnc(NCCc3ccccn3)n2)cc1` (stereo not drawn) [N-(1-carbamoyl-2-phenyl-ethyl)(4-{2-[(2-(2-pyridyl)ethyl)amino]pyrimidin-4-yl}phenyl)carboxamide], the IC50 was no more than 10 µM.

Regarding `Cc1nc(NCCNc2ccc([N+](=O)[O-])cn2)ncc1C(=O)NC(Cc1ccccc1)C(N)=O` (stereo not drawn) [N-(1-carbamoyl-2-phenylethyl)[4-methyl-2-({2-[(5-nitro(2-pyridyl))amino]ethyl}amino)pyrimidin-5-yl]carboxamide], the IC50 is no more than 10 µM.

On to `O=C(NCC(c1ccccc1)c1ccccc1)c1ccc(-c2ccnc(NCCNc3ccc([N+](=O)[O-])cn3)n2)cc1` [N-(2,2-diphenylethyl){4-[2-({2-[(5-nitro(2-pyridyl))amino]ethyl}amino)pyrimidin-4-yl]phenyl}carboxamide], for which the IC50 was no more than 10 µM.

As to `N#Cc1ccc(-c2nc(NCCNc3ccc([N+](=O)[O-])cn3)ncc2C(=O)NCCN)cc1` [N-(2-aminoethyl)[4-(4-cyanophenyl)-2-({2-[(5-nitro(2-pyridyl))amino]ethyl}amino)pyrimidin-5-yl]carboxamide], the IC50 was no more than 1 µM.

`COCCNC(=O)c1ccc(-c2ccnc(NCCNc3ccc([N+](=O)[O-])cn3)n2)cc1` [N-(2-methoxyethyl){4-[2-({2-[(5-nitro(2-pyridyl))amino]ethyl}amino)pyrimidin-4-yl]phenyl}carboxamide]: the IC50 was no more than 10 µM.

With `N#Cc1ccc(-c2nc(NCCNc3ccc([N+](=O)[O-])cn3)ncc2C(=O)NCC(N)=O)cc1` [N-(carbamoylmethyl)[4-(4-cyanophenyl)-2-({2-[(5-nitro(2-pyridyl))amino]ethyl}amino)pyrimidin-5-yl]carboxamide], the IC50 is no more than 1 µM.

Take `N#CCNC(=O)c1cnc(NCCNc2ccc([N+](=O)[O-])cn2)nc1-c1ccc(C#N)cc1` [N-(cyanomethyl)[4-(4-cyanophenyl)-2-({2-[(5-nitro(2-pyridyl))amino]ethyl}amino)pyrimidin-5-yl]carboxamide]: the IC50 is no more than 1 µM.

As to `CC(C)(C)NC(=O)c1cnc(NCCNc2ccc([N+](=O)[O-])cn2)nc1-c1ccc(C#N)cc1` [N-(tert-butyl)[4-(4-cyano-phenyl)-2-({2-[(5-nitro(2-pyridyl))amino]ethyl}amino)pyrimidin-5-yl]carboxamide], the IC50 is no more than 1 µM.

With `O=C(NCCc1ccc(Cl)cc1Cl)c1ccc(-c2ccnc(NCCNc3ccc([N+](=O)[O-])cn3)n2)cc1` [N-[2-(2,4-dichlorophenyl)ethyl]{4-[2-({2-[(5-nitro(2-pyridyl))amino]ethyl}-amino)pyrimidin-4-yl]phenyl}carboxamide], the IC50 was no more than 10 µM.

Consider `CN(C)CCNC(=O)c1cnc(NCCNc2ccc([N+](=O)[O-])cn2)nc1-c1ccc(C#N)cc1` [N-[2-(dimethylamino)ethyl][4-(4-cyanophenyl)-2-({2-[(5-nitro(2-pyridyl))-amino]ethyl}amino)pyrimidin-5-yl]carboxamide], for which the IC50 is no more than 1 µM.

For `CN(C)CCN(C)C(=O)c1cnc(NCCNc2ccc([N+](=O)[O-])cn2)nc1-c1ccc(C#N)cc1` [N-[2-(dimethylamino)ethyl][4-(4-cyanophenyl)-2-({2-[(5-nitro(2-pyridyl))amino]ethyl}amino)pyrimidin-5-yl]-N-methylcarboxamide], the IC50 is no more than 1 µM.

For the compound `CNCC(=O)Nc1cnc(NCCNc2ccc([N+](=O)[O-])c(N)n2)nc1-c1ccc(Cl)cc1Cl` [N-[2-({2-[(6-amino-5-nitro(2-pyridyl))amino]ethyl}amino)-4-(2,4-dichlorophenyl)pyrimidin-5-yl]-2-(methylamino)acetamide], the IC50 was no more than 1 µM.

As to `CC(=O)Nc1cnc(NCCNc2ccc([N+](=O)[O-])cn2)nc1-c1ccc(Cl)cc1Cl` [N-[4-(2,4-dichlorophenyl)-2-({2-[(5-nitro(2-pyridyl))amino]ethyl}amino)pyrimidin-5-yl]-acetamide], the IC50 was no more than 1 µM.
